Laboratory results taken from the Kinase Knowledgebase extract (Sharma et al. 2016).
Where “and” joins values, the source holds several entries; their conditions need not be identical. Equal entries are not always repeated.

Target: ROCK2 (human) (UniProt O75116)
Assay: Inhibition of ROCK2 Kinase Activity

Chain of ROCK2 (human) (O75116 whole entry, looked up): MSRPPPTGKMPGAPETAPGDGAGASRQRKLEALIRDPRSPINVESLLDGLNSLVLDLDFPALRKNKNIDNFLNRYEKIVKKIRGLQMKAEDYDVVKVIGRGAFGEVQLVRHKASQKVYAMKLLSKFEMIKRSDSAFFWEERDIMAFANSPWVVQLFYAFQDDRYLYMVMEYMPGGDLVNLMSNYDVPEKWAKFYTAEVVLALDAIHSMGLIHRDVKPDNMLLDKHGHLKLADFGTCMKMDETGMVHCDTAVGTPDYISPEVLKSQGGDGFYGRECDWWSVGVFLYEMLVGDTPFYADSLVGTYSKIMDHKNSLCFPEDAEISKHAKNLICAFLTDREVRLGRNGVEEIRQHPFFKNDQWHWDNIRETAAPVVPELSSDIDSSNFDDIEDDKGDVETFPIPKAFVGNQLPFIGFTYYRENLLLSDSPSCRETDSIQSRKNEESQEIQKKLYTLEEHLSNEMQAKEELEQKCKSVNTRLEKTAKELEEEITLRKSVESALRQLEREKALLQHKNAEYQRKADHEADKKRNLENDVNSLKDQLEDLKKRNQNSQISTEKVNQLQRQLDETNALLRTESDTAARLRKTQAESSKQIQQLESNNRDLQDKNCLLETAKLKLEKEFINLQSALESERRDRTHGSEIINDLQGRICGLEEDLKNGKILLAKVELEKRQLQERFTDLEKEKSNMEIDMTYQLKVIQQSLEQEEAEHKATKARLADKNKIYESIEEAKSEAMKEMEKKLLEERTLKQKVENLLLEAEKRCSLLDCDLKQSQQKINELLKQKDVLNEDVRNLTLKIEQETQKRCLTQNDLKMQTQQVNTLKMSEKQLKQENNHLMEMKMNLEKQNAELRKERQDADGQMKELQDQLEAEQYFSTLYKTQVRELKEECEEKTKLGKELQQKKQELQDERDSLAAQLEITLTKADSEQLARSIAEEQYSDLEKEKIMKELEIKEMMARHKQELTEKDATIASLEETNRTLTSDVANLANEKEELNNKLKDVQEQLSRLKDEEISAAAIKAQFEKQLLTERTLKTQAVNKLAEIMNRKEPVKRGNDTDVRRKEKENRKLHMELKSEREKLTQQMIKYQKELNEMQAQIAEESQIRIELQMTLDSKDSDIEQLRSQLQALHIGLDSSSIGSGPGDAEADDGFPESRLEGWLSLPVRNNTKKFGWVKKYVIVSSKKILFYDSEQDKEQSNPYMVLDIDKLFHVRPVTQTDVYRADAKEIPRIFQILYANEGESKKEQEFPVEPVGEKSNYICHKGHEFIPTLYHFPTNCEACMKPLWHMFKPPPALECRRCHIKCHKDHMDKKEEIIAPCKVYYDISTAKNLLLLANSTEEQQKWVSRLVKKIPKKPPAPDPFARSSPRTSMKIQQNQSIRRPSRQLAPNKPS

Structure (SMILES) | IC50
CC(N)(c1ccc(F)cc1)C1CCC(Oc2cc3cc[nH]c(=O)c3cc2Cl)CC1 (centres undefined) | 0.01 to 0.1 µM
NC(C1CCC(Oc2cc3cc[nH]c(=O)c3cc2Cl)CC1)C1CC1 (centres undefined) | 0.1 to 1 µM
CCCC(C)(N)C1CCC(Oc2cc3cc[nH]c(=O)c3cc2Cl)CC1 (centres undefined) | 0.01 to 0.1 µM
CCC(N)C1(c2ccc(F)cc2)CC(Oc2cc3cc[nH]c(=O)c3cc2Cl)C1 (centres undefined) | 0.1 to 1 µM
N[C@H](c1ccccc1)[C@]1(c2ccccc2)CC[C@@H](Oc2cc3cc[nH]c(=O)c3cc2Cl)CC1 | 0.01 to 0.1 µM
COc1ccc(C(N)[C@H]2CC[C@H](Oc3cc4cc[nH]c(=O)c4cc3Cl)CC2)cc1 (some centres undefined) | 0.01 to 0.1 µM
Cc1ccc(C(N)C2CCC(Oc3cc4cc[nH]c(=O)c4cc3Cl)CC2)cc1 (centres undefined) | ≤ 0.01 µM and 0.01 to 0.1 µM
CCC(N)[C@]1(c2ccc(C)c(OC)c2)CC[C@H](Oc2cc3cc[nH]c(=O)c3cc2Cl)CC1 (some centres undefined) | ≤ 0.01 µM
CCC(N)C1CCC(Oc2cc3cc[nH]c(=O)c3cc2Cl)CC1 (centres undefined) | 0.01 to 0.1 µM
CCC(N)[C@]1(c2cccc(Br)c2)CC[C@H](Oc2cc3cc[nH]c(=O)c3cc2Cl)CC1 (some centres undefined) | ≤ 0.01 µM
CCC(N)(CC)C1CCC(Oc2cc3cc[nH]c(=O)c3cc2Cl)CC1 (centres undefined) | 0.1 to 1 µM and 0.01 to 0.1 µM
CC[C@@H](N)[C@]1(c2ccc(F)cc2)CC[C@H](Oc2cc3cc[nH]c(=O)c3cc2Cl)CC1 | ≤ 0.01 µM
NC(c1ccc(F)cc1)C1CCC(Oc2cc3cc[nH]c(=O)c3cc2Cl)CC1 (centres undefined) | ≤ 0.01 µM
CC[C@@H](N)[C@]1(c2ccccc2)CC[C@@H](Oc2cc3cc[nH]c(=O)c3cc2Cl)CC1 | 0.01 to 0.1 µM
COc1ccc(C(N)[C@H]2CC[C@@H](Oc3cc4cc[nH]c(=O)c4cc3Cl)CC2)cc1 (some centres undefined) | ≤ 0.01 µM
N[C@@H](c1ccccc1)[C@]1(c2ccccc2)CC[C@@H](Oc2cc3cc[nH]c(=O)c3cc2Cl)CC1 | 0.1 to 1 µM
CC[C@@H](N)[C@]1(c2ccccc2)CC[C@H](Oc2cc3cc[nH]c(=O)c3cc2Cl)CC1 | ≤ 0.01 µM
CC(N)(C1CCCC1)C1CCC(Oc2cc3cc[nH]c(=O)c3cc2Cl)CC1 (centres undefined) | 0.1 to 1 µM
N[C@H](c1ccc(F)cc1)C1CCC(Oc2cc3cc[nH]c(=O)c3cc2Cl)CC1 (some centres undefined) | 0.1 to 1 µM
N[C@@H](c1ccc(F)cc1)C1CCC(Oc2cc3cc[nH]c(=O)c3cc2Cl)CC1 (some centres undefined) | ≤ 0.01 µM
COc1ccc(C(C)(N)C2CCC(Oc3cc4cc[nH]c(=O)c4cc3Cl)CC2)cc1 (centres undefined) | 0.01 to 0.1 µM
CC(N)(C1CCC(Oc2cc3cc[nH]c(=O)c3cc2Cl)CC1)C1CC1 (centres undefined) | 0.1 to 1 µM
CC(N)(c1ccccc1)C1CCC(Oc2cc3cc[nH]c(=O)c3cc2Cl)CC1 (centres undefined) | 0.01 to 0.1 µM
CC[C@H](N)[C@]1(c2ccccc2)CC[C@H](Oc2cc3cc[nH]c(=O)c3cc2Cl)CC1 | ≤ 0.01 µM
